Structures can show the parent of a compound that is named as a salt.
Assay: Pharmacokinetics in Rhesus monkeys
Type: in vivo
Conditions: for AUC / Cmax / k el / half-life: rhesus monkey, in vivo; for k el: Kel
[1] = iv, 2 mg/kg, monkey 34887, IV 2 mg/kg
[2] = iv, 2 mg/kg, monkey 35188, IV 2 mg/kg
[3] = po, 10 mg/kg, Mean, PO 10 mg/kg
[4] = po, 10 mg/kg, monkey 34920, PO 10 mg/kg
[5] = po, 10 mg/kg, monkey 35189, PO 10 mg/kg

Cc1ccc2c(c1)c1c(n2CCc2ccccc2)CCN(C)C1 [AVN-101, 2,8-dimethyl-5-penethyl-2,3,4,5-tetra-hydro-1h-pyrido[[4,3-B]]indole hydrochloride]
Fabs (PO 10 mg/kg vs IV 2 mg/kg, mean): 15.3% | AUC (iv, 2 mg/kg, AUC0 ⟶t, Mean, IV 2 mg/kg): 426 ng·h/mL | AUC (iv, 2 mg/kg, AUC0 ⟶t, monkey 34887, IV 2 mg/kg): 356 ng·h/mL | AUC (iv, 2 mg/kg, AUC0 ⟶t, monkey 35188, IV 2 mg/kg): 496 ng·h/mL | AUC (iv, 2 mg/kg, AUC0 ⟶∞, Mean, IV 2 mg/kg): 792 ng·h/mL | AUC (iv, 2 mg/kg, AUC0 ⟶∞, monkey 34887, IV 2 mg/kg): 388 ng·h/mL | AUC (iv, 2 mg/kg, AUC0 ⟶∞, monkey 35188, IV 2 mg/kg): 1200 ng·h/mL | Cmax (iv, 2 mg/kg, Mean, IV 2 mg/kg): 324 ng/mL | Cmax [1]: 304 ng/mL | Cmax [2]: 345 ng/mL | k el (iv, 2 mg/kg, Mean, IV 2 mg/kg): 0.000208 s⁻¹ | k el [1]: 0.000347 s⁻¹ | k el [2]: 7.17e-05 s⁻¹ | half-life (iv, 2 mg/kg, T1/2, Mean, IV 2 mg/kg): 1.63 h | half-life (iv, 2 mg/kg, T1/2, monkey 34887, IV 2 mg/kg): 0.55 h | half-life (iv, 2 mg/kg, T1/2, monkey 35188, IV 2 mg/kg): 2.7 h | AUC (po, 10 mg/kg, AUC0 ⟶t, Mean, PO 10 mg/kg): 360 ng·h/mL | AUC (po, 10 mg/kg, AUC0 ⟶t, monkey 34920, PO 10 mg/kg): 321 ng·h/mL | AUC (po, 10 mg/kg, AUC0 ⟶t, monkey 35189, PO 10 mg/kg): 398 ng·h/mL | AUC (po, 10 mg/kg, AUC0 ⟶∞, Mean, PO 10 mg/kg): 606 ng·h/mL | AUC (po, 10 mg/kg, AUC0 ⟶∞, monkey 34920, PO 10 mg/kg): 637 ng·h/mL | AUC (po, 10 mg/kg, AUC0 ⟶∞, monkey 35189, PO 10 mg/kg): 575 ng·h/mL | Cmax [3]: 66 ng/mL | Cmax [4]: 53 ng/mL | Cmax [5]: 79 ng/mL | k el [3]: 3.67e-05 s⁻¹ | k el [4]: 2.67e-05 s⁻¹ | k el [5]: 4.5e-05 s⁻¹ | half-life (po, 10 mg/kg, T1/2, Mean, PO 10 mg/kg): 5.77 h | half-life (po, 10 mg/kg, T1/2, monkey 34920, PO 10 mg/kg): 7.3 h | half-life (po, 10 mg/kg, T1/2, monkey 35189, PO 10 mg/kg): 4.25 h
